# What was measured:
# [1] = tested on: clinical isolates of T. rubrum (14-01, 14-02, 14-03, 13-04); experiment: Inhibition of growth of clinical isolates of T. rubrum (FIG. 2); assay type: cell-based, Trichophyton rubrum; conditions: all four clinical isolates
# Protocol: (§1) FIG. 2(A) is a graphical representations showing the effect of the plant defensins NaD1 (dashed line) and HXL008 (solid line) on the growth of clinical isolate 14-01 of Trichophyton rubrum in vitro. Fungal growth was measured by the increase in optical density at 595 nm (A595) achieved 72 hours after inoculation of the growth medium and is plotted as a percentage of growth relative to a no-protein control (vertical axis) versus protein concentration (μg/mL, horizontal axis).
# as §1, with “2(B)” for “2(A)”, “representation” for “representations”, “14-02” for “14-01”, “axis). […]” for “axis).”
# Antifungal assays are conducted in 96 well microtitre plates essentially as herein described. […] Fungal growth is assayed by measuring optical density at 595 nm (A595) using a microtitre plate reader (SpectraMax Pro M2; Molecular Devices. Growth is allowed to proceed until the optical density (OD) of the fungus in the absence of any test defensin reached an OD of 0.2. Each test is performed in duplicate.
# [2] = tested on: A. fumigatus; experiment: Inhibition of growth of Aspergillus fumigatus, Example 2 antifungal assay; assay type: cell-based; conditions: ½ strength PDB, 30° C., A595
# Protocol: The inhibitory effects of the plant defensins on the growth of Candida albicans, Aspergillus fumigatus (obtained from the National Mycology Reference Centre, South Australia Pathology at the Women's and Children's Hospital, Adelaide, Australia), C. glabrata, C. tropicalis, A. flavus, A. niger, A. fumigants, Cryptococcus neoformans and C. gattii (obtained from Dee Carter, University of Sydney, New South Wales, Australia) are measured essentially as described by Broekaert et al. (1990) FEMS Microbiol Lett 69:55-59.
# Spores of A. flavus. A. niger and A. fumigatus are isolated from sporulating fungus growing on ½ strength Sabouraud dextrose agar. Spores were removed from the plates by the addition of ½ strength potato dextrose broth (PDB). C. albicans, C. glabrata, C. tropicalis, C. neoformans and C. gattii cells are grown in Yeast Peptone Broth (YPD) for 16 h. Spore and cell concentrations are measured using a hemocytometer.
# Antifungal assays are conducted in 96 well microtitre plates essentially as herein described. Wells are loaded with 20 μL of filter sterilized (0.22 μm syringe filter, Millipore) defensin (10× stock for each final concentration) or water and 80 μL of 5×10^4 spores/mL (A. flavus, A. niger, A. fumigatus), 5,000 cells/mL (C. albicans, C. glabrata, C. tropicalis) or 1×10^6 cells/mL (C. neoformans, C. gattii) in ½ strength PDB. The plates are incubated at 30° C. Fungal growth is assayed by measuring optical density at 595 nm (A595) using a microtitre plate reader (SpectraMax Pro M2; Molecular Devices. Growth is allowed to proceed until the optical density (OD) of the fungus in the absence of any test defensin reached an OD of 0.2. Each test is performed in duplicate.
substance,measurement,setting,value
HXL008: Class I plant defensin from Picramnia pentandra (KVCTKPSKFFKGLCGTDGACTTACRKEGLHSGYCQLKGFLNSVCVCRKHC; HXL008 Picramnia pentandra),Growth inhibition of T. rubrum clinical isolates compared with NaD1,[1],inhibited growth at a lower concentration than NaD1
same,IC50 against A. fumigatus,[2],7.5 µg/mL

# Source: patent US20180193412A1, “Method of In Vivo Treatment” (Hexima Limited, priority 2015, published 2018)
